Assay results from article PMC11946255, “Extraction of Cannabinoids and Terpenes from Hemp Flowers and Leaves (Cannabis sativa L., Futura 75): Chemical Profiling and Evaluation of Anticancer Properties” (Molecules, 2025).
In brackets after ≈: the same amount, converted by molar mass.

Tests used:
[1] = system: biphenotypic B myelomonocytic leukemia MV4-11; experiment: Antiproliferative activity, MTT assay, MV4-11; type: cell-based, human; settings: 2 μg/mL, 72 h, compared to untreated control cells
Procedure: (§1) Two extracts, Futu 1 and Futu 2, were selected for the study of their antiproliferative activity against six human cancer cell lines: biphenotypic B myelomonocytic leukemia (MV4-11), lung carcinoma (A549), colon adenocarcinoma (HT-29), gastric adenocarcinoma (AGS), and breast carcinomas (MCF-7 (ER+) and MDA-MB-468 (TNBC)). Additionally, their cytotoxicity and potential safety for use were assessed on normal human breast epithelial cells (MCF-10A). This study aimed to determine the effectiveness of these extracts in inhibiting cancer cell growth while ensuring minimal toxicity to normal cells. The first extract, Futu 1, contained the highest amount of cannabinoid fraction (51.57%) among all tested extracts, and the terpene fraction consisted of 9.8% monoterpenes and 90.2% of sesquiterpenes. Futu 1 was obtained using pressurized extraction with the following process parameters: a pressure of 1 bar, a solvent mixture of hexane/ethanol (7:3, v/v), and a temperature of 25 °C. The second extract, Futu 2, was selected for its higher monoterpene content (19.6%) in the terpene fraction in comparison to sesquiterpenes (80.4%) and its 49.49% content of cannabinoids. This extract was also obtained via pressurized extraction, using a pressure of 1 bar, a solvent mixture of hexane/isopropanol (7:3, v/v), and a temperature of −55 °C. After 72 h of incubation of cancer and normal cells with cannabinoids and the extracts Futu 1 or Futu 2, antiproliferative activity was assessed using the MTT assay (for MV4-11) or the SRB assay. The percentage of cell growth inhibition was calculated and IC50 values were determined (Table 3).
Human cell lines: biphenotypic B myelomonocytic leukemia MV4-11, gastric adenocarcinoma AGS, colon adenocarcinoma HT-29, and normal breast MCF-10A cells were obtained from American Type Culture Collection (ATCC) in the United States; lung carcinoma A549 and breast cancer MCF-7 were obtained from European Collection of Authenticated Cell Cultures (ECACC). Human breast cancer MDA-MB-468 cells were obtained from Leibniz Institute DSMZ (German Collection of Microorganisms and Cell Cultures). All the cell lines were maintained at the Hirszfeld Institute of Immunology and Experimental Therapy, PAS, Wroclaw, Poland. MV4-11 and MDA-MB-468 cells were cultured in RPMI 1640 medium (IIET PAS, Wrocław, Poland) with 1.0 mM sodium pyruvate (only MV4-11) and 10% (MV4-11) or 20% (MDA-MB-468) fetal bovine serum (FBS) (all from Merck, Darmstadt, Germany). A549, HT-29, and AGS cells were cultured in RPMI 1640 + Opti-MEM (1:1) medium (IIET PAS, Wrocław, Poland, and Gibco, London, UK) supplemented with 5% FBS (Merck, Darmstadt, Germany) and 1.0 mM sodium pyruvate (only HT-29). […]

[2] = system: lung carcinoma A549; experiment: Antiproliferative activity, SRB assay, A549; type: cell-based, human; settings: for IC50 A549 / IC50: 72 h incubation, SRB, mean ± SD; for Calculated Selectivity Index SI A549: SI = IC50 MCF-10A / IC50 A549; for IC50: Homo sapiens, A549
[3] = system: breast cancer MCF-7 (ER+); experiment: Antiproliferative activity, SRB assay, MCF-7; type: cell-based, human; settings: for IC50 MCF-7 / IC50: 72 h incubation, SRB, mean ± SD; for Calculated Selectivity Index SI MCF-7: SI = IC50 MCF-10A / IC50 MCF-7; for IC50: Homo sapiens, MCF7
[4] = system: colon adenocarcinoma HT-29; experiment: Antiproliferative activity, SRB assay, HT-29; type: cell-based, human; settings: for IC50 HT-29 / IC50: 72 h incubation, SRB, mean ± SD; for Calculated Selectivity Index SI HT-29: SI = IC50 MCF-10A / IC50 HT-29; for IC50: Homo sapiens, HT-29
[5] = system: normal breast epithelial MCF-10A cells; experiment: Cytotoxicity, SRB assay, MCF-10A; type: cell-based, human; settings: 72 h incubation, non-tumorigenic cells, mean ± SD; for IC50: Homo sapiens, MCF-10A
Procedure: as §1
Human cell lines: biphenotypic B myelomonocytic leukemia MV4-11, gastric adenocarcinoma AGS, colon adenocarcinoma HT-29, and normal breast MCF-10A cells were obtained from American Type Culture Collection (ATCC) in the United States; lung carcinoma A549 and breast cancer MCF-7 were obtained from European Collection of Authenticated Cell Cultures (ECACC). Human breast cancer MDA-MB-468 cells were obtained from Leibniz Institute DSMZ (German Collection of Microorganisms and Cell Cultures). All the cell lines were maintained at the Hirszfeld Institute of Immunology and Experimental Therapy, PAS, Wroclaw, Poland. MV4-11 and MDA-MB-468 cells were cultured in RPMI 1640 medium (IIET PAS, Wrocław, Poland) with 1.0 mM sodium pyruvate (only MV4-11) and 10% (MV4-11) or 20% (MDA-MB-468) fetal bovine serum (FBS) (all from Merck, Darmstadt, Germany). A549, HT-29, and AGS cells were cultured in RPMI 1640 + Opti-MEM (1:1) medium (IIET PAS, Wrocław, Poland, and Gibco, London, UK) supplemented with 5% FBS (Merck, Darmstadt, Germany) and 1.0 mM sodium pyruvate (only HT-29). The MCF-7 cells were cultured in Eagle medium (IIET PAS, Wrocław, Poland) supplemented with 8 microg/mL of insulin and 1% MEM NON-Essential amino acid (all Merck, Darmstadt, Germany). Normal breast epithelial MCF-10A cells were cultured in the HAM’S F-12 medium, which was supplemented with 10% Horse Serum (Gibco, London, UK), 20 ng/mL EGFh, 10 µg/mL insulin, and 0.5 µg/mL Hydrocortisone and 0.05 mg/mL Cholera Toxin from Vibrio cholerae were from Merck, Darmstadt, Germany.
The antiproliferative activity of cannabinoids (in concentrations of 1 mg/mL in methanol) and the plant extracts named Futu1 and Futu2 (the solutions were prepared by dissolving the substance in methanol to a concentration of 50 mg/mL) were tested against 6 cancer cell lines. Their cytotoxicity was also tested against one normal cell line. The tested mixtures of compounds were diluted in a culture medium to reach the final concentrations. Before adding the tested compounds (24 h prior), the cells were plated in 384-well plates (Greiner Bio-One) at a density of 1 × 10^3 (A549), 1.5 × 10^3 (MDA-MB-468, HT-29, MCF-7), or 2 × 10^3 (AGS, MCF-10A) cells per well. The MV4-11 cells were plated in 96-well plates (Corning) at a density of 5 × 10^3 cells per well. […]

[6] = system: gastric adenocarcinoma AGS; experiment: Antiproliferative activity, SRB assay, AGS; type: cell-based, human; settings: for IC50 AGS / IC50: 72 h incubation, SRB, mean ± SD; for Calculated Selectivity Index SI AGS: SI = IC50 MCF-10A / IC50 AGS; for IC50: Homo sapiens
[7] = system: lung (A549), colon (HT-29), gastric (AGS), and breast (MCF-7, ER+) cancer cell lines; experiment: Antiproliferative activity, SRB assay, summarised over the cancer cell lines; type: cell-based; settings: Homo sapiens; 72 h, range across the four cancer cell lines
Procedure: as §1, with “The second extract, Futu 2, was selected for its higher monoterpene content (19.6%) in the terpene fraction in comparison to sesquiterpenes (80.4%) and its 49.49% content of cannabinoids. This extract was also obtained via pressurized extraction, using a pressure of 1 bar, a solvent mixture of hexane/isopropanol (7:3, v/v), and a temperature of −55 °C.” left out, “3). […]” for “3).”

CCCCCc1cc(O)c2c(c1)OC(C)(C)[C@@H]1CCC(C)=C[C@@H]21 (relative stereo) [THC, (–)-trans-Δ^9-tetrahydrocannabinol]
Stimulation of MV4-11 cell growth [1]: 180%
IC50 A549 [2]: 3.94 ± 0.44 µg/mL (≈ 12.5 µM)
Calculated Selectivity Index SI A549 [2]: 2.82
IC50 MCF-7 [3]: 8.4 ± 1.26 µg/mL (≈ 26.7 µM)
Calculated Selectivity Index SI MCF-7 [3]: 1.33
IC50 HT-29 [4]: 3.73 ± 0.59 µg/mL (≈ 11.9 µM)
Calculated Selectivity Index SI HT-29 [4]: 2.98
IC50 MCF-10A [5]: 11.13 ± 0.72 µg/mL (≈ 35.4 µM)
IC50 AGS [6]: 6.35 ± 1.35 µg/mL (≈ 20.2 µM)
Calculated Selectivity Index SI AGS [6]: 1.75

CCCCCc1cc(O)c2c(c1)OC(C)(CCC=C(C)C)C=C2 (centres unmarked) [CBC, cannabichromene]
Stimulation of MV4-11 cell growth [1]: 140%
IC50 [2]: 3.26 ± 0.2 µg/mL (≈ 10.4 µM)
Calculated Selectivity Index SI A549 [2]: 3.23
IC50 [3]: 7.56 ± 1.52 µg/mL (≈ 24 µM)
Calculated Selectivity Index SI MCF-7 [3]: 1.39
IC50 [4]: 5.94 ± 1.86 µg/mL (≈ 18.9 µM)
Calculated Selectivity Index SI HT-29 [4]: 1.77
IC50 [5]: 10.5 ± 0.46 µg/mL (≈ 33.5 µM)
IC50 [6]: 5.53 ± 0.88 µg/mL (≈ 17.6 µM)
Calculated Selectivity Index SI AGS [6]: 1.9

C=C(C)[C@@H]1CCC(C)=C[C@H]1c1c(O)cc(CCCCC)cc1O [CBD, cannabidiol]
Stimulation of MV4-11 cell growth [1]: 140%
IC50 [2]: 2.87 ± 0.24 µg/mL (≈ 9.13 µM)
Calculated Selectivity Index SI A549 [2]: 3.68
IC50 [7]: 2.87 to 3.74 µg/mL (≈ 9.13 to 11.9 µM)
IC50 [3]: 3.67 ± 0.55 µg/mL (≈ 11.7 µM)
Calculated Selectivity Index SI MCF-7 [3]: 2.87
IC50 [4]: 3.04 ± 0.52 µg/mL (≈ 9.67 µM)
Calculated Selectivity Index SI HT-29 [4]: 3.47
IC50 [5]: 10.6 ± 0.63 µg/mL (≈ 33.5 µM)
IC50 [6]: 3.74 ± 0.28 µg/mL (≈ 11.9 µM)
Calculated Selectivity Index SI AGS [6]: 2.82

C=C(C)[C@@H]1CCC(C)=C[C@H]1c1c(O)cc(CCC)cc1O [CBDV]
IC50 A549 [2]: 6.22 ± 2.26 µg/mL (≈ 21.7 µM)
Calculated Selectivity Index SI A549 [2]: 1.81
IC50 MCF-7 [3]: 8.43 ± 2.05 µg/mL (≈ 29.4 µM)
Calculated Selectivity Index SI MCF-7 [3]: 1.33
IC50 HT-29 [4]: 3.6 ± 0.4 µg/mL (≈ 12.6 µM)
Calculated Selectivity Index SI HT-29 [4]: 3.12
IC50 MCF-10A [5]: 11.24 ± 0.26 µg/mL (≈ 39.2 µM)
IC50 AGS [6]: 8.4 ± 1.98 µg/mL (≈ 29.3 µM)
Calculated Selectivity Index SI AGS [6]: 1.34

CCCCCc1cc(O)c(C/C=C(\C)CCC=C(C)C)c(O)c1 [CBG, cannabigerol]
IC50 [2]: 3.71 ± 0.46 µg/mL (≈ 11.7 µM)
Calculated Selectivity Index SI A549 [2]: 2.89
IC50 [3]: 7.43 ± 1.43 µg/mL (≈ 23.5 µM)
Calculated Selectivity Index SI MCF-7 [3]: 1.45
IC50 [4]: 10 ± 1.14 µg/mL (≈ 31.7 µM)
Calculated Selectivity Index SI HT-29 [4]: 1.07
IC50 [5]: 10.7 ± 0.71 µg/mL (≈ 33.9 µM)
IC50 [6]: 6.11 ± 1.31 µg/mL (≈ 19.3 µM)
Calculated Selectivity Index SI AGS [6]: 1.76

CCCCCc1cc(O)c2c(c1)OC(C)(C)c1ccc(C)cc1-2 [CBN, cannabinol]
Stimulation of MV4-11 cell growth [1]: 140%
IC50 [2]: 3.3 ± 0.15 µg/mL (≈ 10.6 µM)
Calculated Selectivity Index SI A549 [2]: 3.27
IC50 [3]: 5.79 ± 1.79 µg/mL (≈ 18.7 µM)
Calculated Selectivity Index SI MCF-7 [3]: 1.87
IC50 [4]: 6.07 ± 2.11 µg/mL (≈ 19.6 µM)
Calculated Selectivity Index SI HT-29 [4]: 1.78
IC50 [5]: 10.8 ± 0.68 µg/mL (≈ 34.8 µM)
IC50 [6]: 6.18 ± 0.98 µg/mL (≈ 19.9 µM)
Calculated Selectivity Index SI AGS [6]: 1.75
